Source: ChEMBL document CHEMBL4706581, “Discovery of methoxy-naphthyl linked N-(1-benzylpiperidine) benzamide as a blood-brain permeable dual inhibitor of acetylcholinesterase and butyrylcholinesterase” (Eur J Med Chem, 2020)

Tests used:
Acetylcholinesterase [1] = target: Acetylcholinesterase (Electrophorus electricus, UniProt O42275); test: Inhibition of electric eel AChE using acetylthiocholine iodide as substrate preincubated for 20 mins followed by substrate addition and measured every minute for 10 mins by DTNB-reagent based Ellman's method
Acetylcholinesterase (Electrophorus electricus, UniProt O42275), sequence (O42275 whole entry): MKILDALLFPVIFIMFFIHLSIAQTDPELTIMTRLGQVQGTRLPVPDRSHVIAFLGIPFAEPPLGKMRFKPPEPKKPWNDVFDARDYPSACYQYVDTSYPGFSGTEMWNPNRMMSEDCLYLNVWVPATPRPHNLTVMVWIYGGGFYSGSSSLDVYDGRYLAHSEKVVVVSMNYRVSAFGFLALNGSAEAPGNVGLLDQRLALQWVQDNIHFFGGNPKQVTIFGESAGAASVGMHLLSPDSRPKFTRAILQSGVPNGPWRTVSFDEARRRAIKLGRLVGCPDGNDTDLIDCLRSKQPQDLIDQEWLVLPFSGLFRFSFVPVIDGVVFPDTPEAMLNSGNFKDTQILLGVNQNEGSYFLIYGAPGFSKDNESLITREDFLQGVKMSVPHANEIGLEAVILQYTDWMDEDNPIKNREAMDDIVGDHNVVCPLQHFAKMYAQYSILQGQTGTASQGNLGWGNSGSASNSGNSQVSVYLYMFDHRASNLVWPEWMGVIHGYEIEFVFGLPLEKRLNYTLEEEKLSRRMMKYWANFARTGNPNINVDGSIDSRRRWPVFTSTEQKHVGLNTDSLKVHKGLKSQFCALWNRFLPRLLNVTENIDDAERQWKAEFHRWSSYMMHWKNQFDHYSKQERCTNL

Cholinesterase [2] = target: T1, Cholinesterase (Equus caballus, UniProt P81908); test: Inhibition of equine serum BChE using S-butyrylthiocholine iodide as substrate preincubated for 20 mins followed by substrate addition and measured every minute for 10 mins by DTNB-reagent based Ellman's method
T1 sequence (P81908 whole entry): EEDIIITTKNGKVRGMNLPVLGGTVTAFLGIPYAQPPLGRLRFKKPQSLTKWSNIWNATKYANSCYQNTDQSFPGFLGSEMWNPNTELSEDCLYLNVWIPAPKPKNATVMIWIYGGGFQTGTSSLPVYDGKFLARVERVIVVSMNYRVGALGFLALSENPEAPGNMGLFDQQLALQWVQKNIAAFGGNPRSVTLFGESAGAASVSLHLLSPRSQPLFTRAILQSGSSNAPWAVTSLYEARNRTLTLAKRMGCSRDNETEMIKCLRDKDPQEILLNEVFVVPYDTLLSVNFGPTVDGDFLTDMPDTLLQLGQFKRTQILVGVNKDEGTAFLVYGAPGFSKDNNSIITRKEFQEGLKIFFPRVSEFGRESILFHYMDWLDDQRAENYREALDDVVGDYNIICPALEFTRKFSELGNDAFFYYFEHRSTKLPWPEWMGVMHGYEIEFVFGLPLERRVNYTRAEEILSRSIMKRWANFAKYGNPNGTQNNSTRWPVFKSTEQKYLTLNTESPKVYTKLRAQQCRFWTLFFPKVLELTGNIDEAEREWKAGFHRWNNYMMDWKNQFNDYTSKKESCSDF

[3] = Effective permeability of compound by PAMPA-BBB assay; type: ADME; conditions: read-out: Peff
Acetylcholinesterase [4] = target: T2, Acetylcholinesterase (Homo sapiens, UniProt P22303); test: Inhibition of recombinant human AChE
T2 sequence (P22303 whole entry): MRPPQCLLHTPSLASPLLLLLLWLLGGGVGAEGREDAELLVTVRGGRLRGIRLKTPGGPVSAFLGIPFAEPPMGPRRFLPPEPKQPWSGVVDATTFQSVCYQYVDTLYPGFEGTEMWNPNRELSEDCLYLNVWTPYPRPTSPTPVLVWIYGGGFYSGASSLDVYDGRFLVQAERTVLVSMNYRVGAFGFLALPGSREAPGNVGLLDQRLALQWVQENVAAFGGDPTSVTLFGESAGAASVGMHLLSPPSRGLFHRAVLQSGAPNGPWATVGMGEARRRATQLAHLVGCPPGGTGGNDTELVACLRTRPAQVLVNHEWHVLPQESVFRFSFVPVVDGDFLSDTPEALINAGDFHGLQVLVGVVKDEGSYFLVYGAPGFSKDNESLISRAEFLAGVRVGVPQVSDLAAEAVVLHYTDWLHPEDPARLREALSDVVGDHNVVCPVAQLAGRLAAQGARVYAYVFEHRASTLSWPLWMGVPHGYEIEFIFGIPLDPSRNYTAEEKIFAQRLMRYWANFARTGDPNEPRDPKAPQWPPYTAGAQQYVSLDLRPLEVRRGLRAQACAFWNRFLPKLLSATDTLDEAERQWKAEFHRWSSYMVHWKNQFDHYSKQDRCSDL

Cholinesterase [5] = target: T1, Cholinesterase; test: Mixed type inhibition of equine serum BChE assessed as decrease in Vmax and increase in Km using varying level of S-butyrylthiocholine iodide as substrate preincubated for 20 mins followed by substrate addition and measured every minute for 10 mins by Lineweaver-Burk plot analysis
Acetylcholinesterase [6] = target: T2, Acetylcholinesterase; test: Non-competitive inhibition of recombinant human AChE assessed as decrease in Vmax with constant Km using varying level of acetylthiocholine iodide as substrate preincubated for 20 mins followed by substrate addition and measured every minute for 10 mins by Lineweaver-Burk plot analysis
Rattus norvegicus = species on record: Rattus norvegicus; test: Inhibition of rat self-induced Amyloid beta (1 to 42 residues) aggregation at 10 uM incubated for 24 hrs by thioflavin-T fluorescence assay relative to control

SMILES | IC50 (Acetylcholinesterase [1]) [µM] | IC50 (Cholinesterase [2]) [µM] | other results
COc1ccc2cc(C(=O)NCCc3cc[n+](Cc4ccccc4C)cc3)ccc2c1 | 1.08 | > 1 | –
COc1ccc2cc(C(=O)NCCc3cc[n+](Cc4ccccc4)cc3)ccc2c1.[Br-] | 0.77 | 0.68 | Papp [3]: 13 nm/s
COc1ccc2cc(C(=O)NCCc3cc[n+](Cc4ccccc4F)cc3)ccc2c1 | 0.28 | > 1 | –
N#Cc1ccc(C(=O)Nc2cc[n+](Cc3ccccc3)cc2)cc1 | 0.469 | – | –
COc1ccc2cc(C(=O)NCCc3cc[n+](Cc4ccc(F)cc4)cc3)ccc2c1 | 0.74 | > 1 | –
O=C(Nc1cc[n+](Cc2ccccc2)cc1)c1ccc2cc(Br)ccc2c1 | 1.44 | – | –
CCOc1ccc(C(=O)Nc2cc[n+](Cc3ccccc3)cc2)cc1 | 0.201 | 12.7 | –
COc1ccc2cc(C(=O)NCCc3cc[n+](Cc4ccc([N+](=O)[O-])cc4)cc3)ccc2c1 | 0.74 | > 1 | –
CC(C)c1ccc(C(=O)Nc2cc[n+](Cc3ccccc3)cc2)cc1 | 0.852 | – | –
O=C(Nc1cc[n+](Cc2ccccc2)cc1)c1ccc(OCc2ccccc2)cc1 | 0.36 | > 1 | –
COc1ccc2cc(C(=O)Nc3cc[n+](Cc4ccccc4Cl)cc3)ccc2c1 | 0.34 | > 1 | –
COc1cc(OC)cc(C(=O)Nc2cc[n+](Cc3ccccc3)cc2)c1 | 0.202 | – | –
COc1ccc2cc(C(=O)Nc3cc[n+](Cc4ccc(Cl)cc4)cc3)ccc2c1 | 0.9 | > 1 | –
COc1ccc2cc(C(=O)Nc3cc[n+](Cc4ccccc4F)cc3)ccc2c1 | 0.21 | > 1 | –
COc1ccc2cc(C(=O)Nc3cc[n+](Cc4ccccc4[N+](=O)[O-])cc3)ccc2c1 | 0.48 | > 1 | –
COc1ccc2cc(C(=O)NCCc3cc[n+](Cc4ccccc4Cl)cc3)ccc2c1 | 0.5 | 0.83 | –
O=C(Nc1cc[n+](Cc2ccccc2)cc1)c1ccc(-c2ccccc2)cc1 | 0.77 | > 1 | –
COc1ccc(C(=O)Nc2cc[n+](Cc3ccccc3)cc2)cc1 | 0.216 | – | –
COc1ccc2cc(C(=O)NCCc3cc[n+](Cc4cccc(Cl)c4)cc3)ccc2c1 | 0.61 | > 1 | –
COc1ccc2cc(C(=O)Nc3cc[n+](Cc4ccc(F)cc4)cc3)ccc2c1 | 0.21 | > 1 | –
COc1ccc(C(=O)Nc2cc[n+](Cc3ccccc3)cc2)cc1OC | 0.42 | – | –
COc1ccc2cc(C(=O)Nc3cc[n+](Cc4ccccc4C)cc3)ccc2c1 | 0.435 | > 1 | –
COc1ccc2cc(C(=O)NCCC3CCN(Cc4ccccc4)CC3)ccc2c1 | – | – | IC50 (Acetylcholinesterase [4]): 0.17 µM; Papp [3]: 69 nm/s; Ki (Cholinesterase [5]): 0.15 µM; Ki (Acetylcholinesterase [6]): 0.21 µM; inhibition (Rattus norvegicus): 25%
COc1ccc2cc(C(=O)Nc3cc[n+](Cc4ccccc4)cc3)ccc2c1 | 0.218 | 1.59 | –
COc1ccc2cc(C(=O)NCCc3cc[n+](Cc4ccccc4[N+](=O)[O-])cc3)ccc2c1 | 0.28 | > 1 | –
